Laboratory results published in paper PMC2759276 (Bioorganic & medicinal chemistry, 2009).
Entries after “also recorded” stand apart in the source; their conditions may differ. Like-named read-outs stand apart in the source and are kept apart here.

Columns and labels:
[1] = biological target: T1, VIM-2 (Escherichia coli, UniProt Q5U7L7); test: VIM-2 CCF2 kinetic assay; assay type: biochemical; conditions: VIM-2, CCF2 format; SD of 3 replicates
[2] = biological target: T1, VIM-2; assay type: biochemical; conditions: for effect of absence of zinc in the assay buffer on potency: with vs without 50 μM ZnSO4
[3] = biological target: IMP-1 (Serratia marcescens, UniProt P52699); test: biochemical; assay type: biochemical; conditions: for inhibition at 56 µM: read-out: Max Inhibition @ Tested Concentration, IMP-1 Nitrocefin
Chain of IMP-1 (P52699 19-246 limits assumed): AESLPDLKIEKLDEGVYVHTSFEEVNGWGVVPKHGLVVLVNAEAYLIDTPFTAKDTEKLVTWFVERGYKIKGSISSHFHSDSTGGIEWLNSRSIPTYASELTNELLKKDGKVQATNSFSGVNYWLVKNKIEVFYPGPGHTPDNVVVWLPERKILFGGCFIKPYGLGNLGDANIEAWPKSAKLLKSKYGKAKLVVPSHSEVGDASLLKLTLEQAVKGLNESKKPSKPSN

[4] = biological target: TEM-1 (Escherichia coli, UniProt P62593); test: TEM-1 nitrocefin assay; assay type: biochemical; conditions: for inhibitory activity against TEM-1 (in words): highest concentration tested 25 μM; for inhibition at 25 µM: read-out: Max Inhibition @ Tested Concentration, TEM-1 Nitrocefin
Chain of TEM-1 (P62593 24-286 limits assumed): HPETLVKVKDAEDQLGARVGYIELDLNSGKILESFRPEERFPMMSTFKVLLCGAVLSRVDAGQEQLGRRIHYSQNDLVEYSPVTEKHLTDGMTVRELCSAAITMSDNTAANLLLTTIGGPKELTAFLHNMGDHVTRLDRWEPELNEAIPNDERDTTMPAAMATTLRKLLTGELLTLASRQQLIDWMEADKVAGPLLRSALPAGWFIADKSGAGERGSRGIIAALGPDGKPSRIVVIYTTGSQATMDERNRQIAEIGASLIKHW

[5] = biological target: AmpC (Enterobacter cloacae, UniProt P05364); test: AmpC nitrocefin assay; assay type: biochemical, E.cloacae; conditions: for inhibitory activity against AmpC (in words): highest concentration tested 25 μM; for inhibition at 25 µM: read-out: Max Inhibition @ Tested Concentration, AmpC Nitrocefin
Chain of AmpC (P05364 21-381): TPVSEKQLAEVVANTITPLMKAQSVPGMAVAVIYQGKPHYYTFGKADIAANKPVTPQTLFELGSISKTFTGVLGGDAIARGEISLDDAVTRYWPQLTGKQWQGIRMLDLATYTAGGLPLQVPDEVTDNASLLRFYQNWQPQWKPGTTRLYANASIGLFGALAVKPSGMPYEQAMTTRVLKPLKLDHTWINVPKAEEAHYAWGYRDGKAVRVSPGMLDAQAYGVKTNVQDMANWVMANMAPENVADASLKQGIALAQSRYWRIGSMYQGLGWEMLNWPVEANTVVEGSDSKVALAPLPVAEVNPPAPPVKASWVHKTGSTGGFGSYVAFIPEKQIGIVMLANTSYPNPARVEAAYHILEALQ

[6] = system: resistant E. coli (BL21/VIM-2); test: Imipenem MIC potentiation by a single dose of inhibitor; assay type: cell-based; conditions: for Imipenem MIC @ 50 μM of compound: BL21+VIM-2; for potentiation of imipenem efficacy (in words): resistant E. coli (BL21/VIM-2)
[7] = biological target: T1, VIM-2; assay type: biochemical
[8] = biological target: T1, VIM-2; test: VIM-2 FRET; assay type: biochemical; conditions: @ 36 μM
[9] = system: non-resistant (BL21) E. coli; test: MIC assay, non-resistant strain; assay type: cell-based
[10] = system: resistant (BL21/VIM-2) E. coli; assay type: cell-based
[11] = system: BL21/VIM2 E. coli; assay type: cell-based; conditions: checkerboard microdilution
[12] = biological target: T1, VIM-2; test: Rapid dilution experiment

Row | Structure (SMILES) | effect of absence of zinc in the assay buffer on potency [2] | IC50 [3] [µM] | activity in the IMP-1 nitrocefin assay (in words) [3] | inhibition at 56 µM [3] [%] | IC50 [4] [µM] | inhibitory activity against TEM-1 (in words) [4] | inhibition at 25 µM [4] [%] | IC50 [5] [µM] | inhibitory activity against AmpC (in words) [5] | inhibition at 25 µM [5] [%] | Imipenem MIC @ 50 μM of compound [6] [µg/mL] | potentiation of imipenem efficacy (in words) [6] | mechanism of inhibition [7] | further results
1 | O=C(CNC(=O)c1cc2cc(Cl)c(O)cc2oc1=O)N[C@@H]1C(=O)N2C(C(=O)O)=C(CSc3ccc4c(c3)C(=O)OC43c4ccc(O)cc4Oc4cc(O)ccc43)CS[C@H]12 [CCF2] | – | – | – | – | – | – | – | – | – | – | – | – | – | Km [1]: 21 ± 7 µM
2 | O=C1c2c(O)ccc(O)c2C(=O)c2c(NCCNCCO)ccc(NCCNCCO)c21 [Mitoxantrone, 1,4-Dihydroxy-5,8-bis([2-([2-hydroxyethyl]amino)ethyl]amino)-9,10-anthracenedione] | not significantly affected by the absence of zinc | > 56 | did not exhibit any inhibitory activity | 0 | > 25 | did not exhibit any inhibitory activity | 0 | > 25 | did not exhibit any inhibitory activity | 0 | 0.2 | completely reverse the effects of VIM-2 on imipenem potency; also recorded: potentiate imipenem efficacy | – | activity in the IMP-1 nitrocefin assay (in words) ([3]; listed as mitoxantrone): inactive at the range of concentrations tested
3 | COCc1nn[nH]c1CNS(=O)(=O)c1ccc(I)cc1 [Compound 2, 4-Iodo-N-((4-(methoxymethyl)-1H-1,2,3-triazol-5-yl)methyl)benzenesulfonamide] | not significantly affected by the absence of zinc; also recorded: independent of the concentration of zinc | > 56 | inactive | 0 | > 25 | – | 0 | > 25 | – | 0 | 1.9 | – | competitive inhibitors | –
4 | O=C(O)c1cc[c]([Hg][Cl])cc1 [pCMB, 4-chloromercuribenzoic acid] | not significantly affected by the absence of zinc | – | modest potency; also recorded: demonstrated potency | – | – | no inhibitory activity | – | – | no inhibitory activity | – | 0.2 | completely reverse the effects of VIM-2 on imipenem potency; also recorded: potentiate imipenem efficacy | slowly reversible or irreversible inhibitor; also recorded: irreversible / slowly reversible | Max Inhibition @ Tested Concentration, VIM-2 (Nitrocefin) ([2]; @ 15 μM): NA ^(e) (80% @ 15 μM); Max Inhibition @ Tested Concentration, VIM-2 (CCF2) [8]: NA (83% @ 36 μM); Max Inhibition @ Tested Concentration, IMP-1 Nitrocefin ([3]; @ 140 μM, 15 minutes of preincubation): NA (82% @ 140 μM); Max Inhibition @ Tested Concentration, TEM-1 Nitrocefin ([4]; @ 25 μM): 0%; IC50 ([4]; read-out: IC50 TEM-1 Nitrocefin): > 25 µM; Max Inhibition @ Tested Concentration, AmpC Nitrocefin ([5]; @ 25 μM): 0%; IC50 ([5]; read-out: IC50 AmpC Nitrocefin): > 25 µM; Compound MIC [9]: 17.9 µg/mL; Compound MIC [10]: 17.9 µg/mL; MIC alone [11]: 17.9 µg/mL; inhibition of VIM-2 ([12]; 24 μM, incubated 30 minutes at room temperature): 90%; recovery of VIM-2 activity after dilution ([12]; after 15 minutes, 1:100 dilution from 24 μM): 16.5%
5 | C#CCCOCc1nn[nH]c1CNS(=O)(=O)c1ccc(I)cc1 [Compound 1, 4-Iodo-N-((4-((but-3-ynyloxy)methyl)-1H-1,2,3-triazol-5-yl)methyl)benzenesulfonamide] | not significantly affected by the absence of zinc; also recorded: independent of the concentration of zinc | > 56 | inactive | 0 | > 25 | – | 0 | > 25 | – | 0 | 1.9 | – | competitive inhibitors | –
